Results published in ChEMBL document CHEMBL3779849, “Exploration of the P3 region of PEXEL peptidomimetics leads to a potent inhibitor of the Plasmodium protease, plasmepsin V” (Bioorg Med Chem, 2016).
The source made the active and inactive calls. The rule behind the calls is not given here. Non-standard residues stand in square brackets, D forms with d. Residues, ends and D or L forms follow the SMILES beside them. *: point of attachment. Phe(4-guanidino) = N=C(N)Nc1ccc(C[C@H](N)C(=O)O)cc1; Arg(NO2) = N=C(NCCC[C@H](N)C(=O)O)N[N+](=O)[O-]; Phe(4-NH2) = Nc1ccc(C[C@H](N)C(=O)O)cc1; Sta = CC(C)C[C@H](N)[C@@H](O)CC(=O)O; Arg(Me) = CNC(=N)NCCC[C@H](N)C(=O)O; Cit = NC(=O)NCCC[C@H](N)C(=O)O; NHPhenethyl = c1ccc(CCN*)cc1; Orn = NCCC[C@H](N)C(=O)O; Cbz = O=C(OCc1ccccc1)*; Ms = CS(=O)(=O)*

Tests used:
HepG2 = experiment: Cytotoxicity against human HepG2 cells assessed as cell viability after 48 hrs by Cell Titer-Glo assay; assay type: cell-based; settings: HepG2, 48 h
[1] = Inhibition of 2.5 ng recombinant FLAG-tagged Plasmodium vivax PMV expressed in High Five insect cells assessed as fluorogenic substrate cleavage using 12 uM DABCYL-RNKRTLAQKQ-E-EDANS as fluorogenic substrate after 120 mins by fluorescence plate reader method
Plasmodium falciparum [2] = experiment: Antimalarial activity against ring-stage Plasmodium falciparum 3D7 infected in human erythrocytes assessed as parasite viability after 72 hrs by LDH assay; assay type: functional, organism-based; settings: 3D7, 72 h
[3] = target: Plasmepsin V (Plasmodium falciparum (isolate 3D7)) (UniProt Q8I6Z5); experiment: Inhibition of PMV in trophozoite stage of Plasmodium flaciparum 3D7 expressing PfEMP3-GFP infected in human erythrocytes assessed as PEXEL processing of PfEMP3 at 20 uM after 5 hrs by Western blot method; assay type: cell-based; settings: Plasmodium falciparum 3D7
Sequence of Plasmepsin V (Plasmodium falciparum (isolate 3D7)) (Q8I6Z5 whole entry, looked up): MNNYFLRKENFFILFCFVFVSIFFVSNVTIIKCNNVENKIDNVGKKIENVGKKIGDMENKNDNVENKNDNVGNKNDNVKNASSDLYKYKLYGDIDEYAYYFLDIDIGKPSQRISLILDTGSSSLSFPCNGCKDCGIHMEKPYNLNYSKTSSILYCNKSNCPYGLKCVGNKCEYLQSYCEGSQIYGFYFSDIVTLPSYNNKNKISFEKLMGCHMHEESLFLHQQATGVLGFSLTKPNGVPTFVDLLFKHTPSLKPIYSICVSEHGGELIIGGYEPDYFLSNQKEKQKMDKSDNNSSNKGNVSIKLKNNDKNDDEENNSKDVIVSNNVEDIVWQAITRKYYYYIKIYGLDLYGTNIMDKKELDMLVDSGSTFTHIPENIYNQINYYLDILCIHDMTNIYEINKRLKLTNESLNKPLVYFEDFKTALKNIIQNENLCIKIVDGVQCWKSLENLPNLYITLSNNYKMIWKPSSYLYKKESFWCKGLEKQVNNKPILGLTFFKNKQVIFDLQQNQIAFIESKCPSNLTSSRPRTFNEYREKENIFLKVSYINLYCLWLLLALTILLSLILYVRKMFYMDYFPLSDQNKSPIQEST

Plasmepsin V = Plasmepsin V (Plasmodium falciparum (isolate 3D7), UniProt Q8I6Z5); experiment: Inhibition of Plasmodium falciparum PMV assessed as fluorogenic substrate cleavage using DABCYL-RNKRTLAQKQ-E-EDANS as fluorogenic substrate after 120 mins by fluorescence plate reader method
Sequence of Plasmepsin V (Q8I6Z5 whole entry): as the sequence (Q8I6Z5 whole entry, looked up) above

[4] = Inhibition of 1 ng recombinant FLAG-tagged Plasmodium vivax PMV expressed in High Five insect cells assessed as fluorogenic substrate cleavage using 7.5 uM DABCYL-RNKRTLAQKQ-E-EDANS as fluorogenic substrate after 120 mins by fluorescence plate reader method
[5] = target: Plasmepsin V (Plasmodium falciparum (isolate 3D7)) (UniProt Q8I6Z5); experiment: Inhibition of PMV in trophozoite stage of Plasmodium flaciparum 3D7 expressing PfEMP3-GFP infected in human erythrocytes assessed as PEXEL processing of PfEMP3 at 1 to 20 uM after 5 hrs by Western blot method; assay type: cell-based; settings: Plasmodium falciparum 3D7
Plasmodium falciparum [6] = experiment: Antimalarial activity against Plasmodium falciparum 3D7 infected in human erythrocytes assessed as parasite viability after 72 hrs by flow cytometry; assay type: functional, organism-based; settings: 3D7, 72 h
[7] = Ratio of EC50 for ring-stage Plasmodium falciparum 3D7 to IC50 for recombinant FLAG-tagged Plasmodium vivax PMV

Compound	EC50 (HepG2) [µM]	IC50 [1] [µM]	EC50 (Plasmodium falciparum [2]) [µM]	further results
CC(C)C[C@H](NC(=O)[C@@H](NC(=O)[C@H](CCC(=O)NC(=N)N)NC(=O)OCc1ccccc1)C(C)C)[C@@H](O)CC(=O)NCCc1ccccc1	> 50	41.6	3.33	–
CCN(CC)CCCC(C)Nc1ccnc2cc(Cl)ccc12 (stereo not given) [CHLOROQUINE]	–	–	0.012	–
CC(C)C[C@H](NC(=O)[C@@H](NC(=O)[C@H](CCCNC(=N)NC#N)NC(=O)OCc1ccccc1)C(C)C)[C@@H](O)CC(=O)NCCc1ccccc1	–	> 50	–	–
CC(=N)NCCC[C@H](NC(=O)OCc1ccccc1)C(=O)N[C@H](C(=O)N[C@@H](CC(C)C)[C@@H](O)CC(=O)NCCc1ccccc1)C(C)C	> 50	40.3	21.4	inhibition [3]: inactive
CC(C)C[C@H](NC(=O)[C@@H](NC(=O)[C@H](CCCNC(N)=O)NC(=O)OCc1ccccc1)C(C)C)[C@@H](O)CC(=O)NCCc1ccccc1 (Cbz-[Cit]-Val-[Sta]-NHPhenethyl)	–	> 50	–	–
CC(C)C[C@H](NC(=O)[C@@H](NC(=O)[C@H](Cc1cccc(NC(=N)N)c1)NC(=O)OCc1ccccc1)C(C)C)[C@@H](O)CC(=O)NCCc1ccccc1	–	> 50	–	–
CONC(=N)NCCC[C@H](NC(=O)OCc1ccccc1)C(=O)N[C@H](C(=O)N[C@@H](CC(C)C)[C@@H](O)CC(=O)NCCc1ccccc1)C(C)C	> 50	18	1.97	–
CC(C)C[C@H](NC(=O)[C@@H](NC(=O)[C@H](CCCNC(=N)N)NC(=O)OCc1ccccc1)C(C)C)[C@@H](O)CC(=O)NCCc1ccccc1 (Cbz-Arg-Val-[Sta]-NHPhenethyl)	> 50	0.128	3.26	inhibition [3]: Active
CC(C)C[C@H](NC(=O)[C@@H](NC(=O)[C@H](CCCNC(=N)N[N+](=O)[O-])NC(=O)OCc1ccccc1)C(C)C)[C@@H](O)CC(=O)NCCc1ccccc1 (Cbz-[Arg(NO2)]-Val-[Sta]-NHPhenethyl)	–	> 50	–	–
CC(C)C[C@H](NC(=O)[C@@H](NC(=O)[C@H](CCCNC(=N)NO)NC(=O)OCc1ccccc1)C(C)C)[C@@H](O)CC(=O)NCCc1ccccc1	> 50	3.88	3.97	inhibition [3]: inactive
CC(C)C[C@H](NC(=O)[C@@H](NC(=O)[C@H](CCCNC(C)C)NC(=O)OCc1ccccc1)C(C)C)[C@@H](O)CC(=O)NCCc1ccccc1	–	> 50	–	–
CC(C)C[C@H](NC(=O)[C@@H](NC(=O)[C@H](CCCN(C)C(=N)N)NC(=O)OCc1ccccc1)C(C)C)[C@@H](O)CC(=O)NCCc1ccccc1	–	> 50	–	–
CC(C)C[C@H](NC(=O)[C@@H](NC(=O)[C@H](CCONC(=N)N)NC(=O)OCc1ccccc1)C(C)C)[C@H](O)CC(=O)NCCc1ccccc1	> 50	2.74	5.65	inhibition [3]: inactive
CC(=O)NCCC[C@H](NC(=O)OCc1ccccc1)C(=O)N[C@H](C(=O)N[C@@H](CC(C)C)[C@@H](O)CC(=O)NCCc1ccccc1)C(C)C (Cbz-[Orn](Ac)-Val-[Sta]-NHPhenethyl)	–	> 50	–	–
CC(C)C[C@H](NC(=O)[C@@H](NC(=O)[C@H](CCONC(=N)N)NC(=O)OCc1ccccc1)C(C)C)[C@@H](O)CC(=O)NCCc1ccccc1	> 50	0.01	0.229	IC50 (Plasmepsin V): 0.0008 µM; IC50 [4]: 0.0016 µM; inhibition [5]: Active; EC50 (Plasmodium falciparum [6]): 0.4 µM; Ratio [7]: 25
CNC(=N)NCCC[C@H](NC(=O)OCc1ccccc1)C(=O)N[C@H](C(=O)N[C@@H](CC(C)C)[C@@H](O)CC(=O)NCCc1ccccc1)C(C)C (Cbz-[Arg(Me)]-Val-[Sta]-NHPhenethyl)	> 50	37.7	12.7	–
CC(C)C[C@H](NC(=O)[C@@H](NC(=O)[C@H](Cc1ccc(N)cc1)NC(=O)OCc1ccccc1)C(C)C)[C@@H](O)CC(=O)NCCc1ccccc1 (Cbz-[Phe(4-NH2)]-Val-[Sta]-NHPhenethyl)	–	> 50	–	–
CC(C)C[C@H](NC(=O)[C@@H](NC(=O)[C@H](CCCNS(C)(=O)=O)NC(=O)OCc1ccccc1)C(C)C)[C@@H](O)CC(=O)NCCc1ccccc1 (Cbz-[Orn](Ms)-Val-[Sta]-NHPhenethyl)	–	> 50	–	–
CC(C)C[C@H](NC(=O)[C@@H](NC(=O)[C@H](Cc1cccc(N)c1)NC(=O)OCc1ccccc1)C(C)C)[C@@H](O)CC(=O)NCCc1ccccc1	–	> 50	–	–
CC(C)C[C@H](NC(=O)[C@@H](NC(=O)[C@H](Cc1ccc(NC(=N)N)cc1)NC(=O)OCc1ccccc1)C(C)C)[C@@H](O)CC(=O)NCCc1ccccc1 (Cbz-[Phe(4-guanidino)]-Val-[Sta]-NHPhenethyl)	–	> 50	–	–
